Source: publication PMC6003355 (2018)

System: WT T. oceani 112 ilvE RNA (RNA, riboswitch) GGAAGUGUACCUUAGGGUUCCGGCCAUAAGGCGUCAGCGACCGAGCGGUACAAUCCGGGGAAACCCGGAACACCGUGAGCAUAAAAGGCUCCAGCGGCAAGUUCCUAAAAGA
Assay: in-line probing
Settings: apparent; ppGpp 200 pM to 5 µM

`Nc1nc2c(ncn2[C@@H]2O[C@H](COP(=O)(O)OP(=O)(O)O)[C@@H](OP(=O)(O)OP(=O)(O)O)[C@H]2O)c(=O)[nH]1` was tested, and the KD was ~ 10 nM.
